The record followed here is US7759389B2, “Chroman derivatives and uses thereof” (Roche Palo Alto LLC, priority 2004, dated 2010).

Structures can show the parent of a compound that is named as a salt.

As usually defined, the melting point is the temperature of the solid-liquid transition.

Series [1] deals with T1, recombinant human 5-HT6 receptor (Homo sapiens, UniProt P50406).
T1 construct: expressed in transfected cells; host or cells: HEK293
Description: Radioligand binding, competition for [3H]LSD in HEK293 cell membranes. The conditions noted are these: [3H]LSD displacement, pH 7.4, 37° C., 75 min, read-out: pKi for 5-HT6 (converted). The procedure:
(§1) The binding activity of compounds of this invention in vitro was determined as follows. Duplicate determinations of 5-HT6 ligand affinity were made by competing for binding of [^3H]LSD in cell membranes derived from HEK293 cells stably expressing recombinant human 5-HT6 receptor. Duplicate determinations of 5-HT2A ligand affinity were made by competing for binding of [^3H]Ketanserin (3-(2-(4-(4-fluorobenzoyl)piperidinol)ethyl)-2,4(1H,3H)-quinazolinedione) in cell membranes derived from CHO-K1 cells stably expressing recombinant human 5-HT2A receptor. Membranes were prepared from HEK 293 cell lines by the method described by Monsma et al., Molecular Pharmacology, Vol. 43 pp. 320-327 (1993), and from CHO-K1 cell lines as described by Bonhaus et al., Br J Pharmacol. June; 115(4):622-8 (1995).
(§2) For estimation of affinity at the 5-HT6 receptor, all determinations were made in assay buffer containing 50 mM Tris-HCl, 10 mM MgSO4, 0.5 mM EDTA, 1 mM ascorbic acid, pH 7.4 at 37° C., in a 250 microliter reaction volume. […]
(§3) Assay tubes containing [^3H] […] LSD or [^3H]Ketanserin were determined as radioactive counts per minute using Packard TopCount.
(§4) Displacement of [^3H]LSD or [^3H]Ketanserin from the binding sites was quantified by fitting concentration-binding data to a 4-parameter logistic equation: […]

Series [2] has as its target T2, recombinant human 5-HT2A receptor (Homo sapiens, UniProt P28223).
T2 construct: expressed in transfected cells; host or cells: CHO-K1
Briefly: Radioligand binding, competition for [3H]Ketanserin in CHO-K1 cell membranes. To be noted: [3H]Ketanserin displacement, pH 7.4, 32° C., 60 min, read-out: pKi for 5-HT2A (converted). The procedure:
as §1, §2, §3, §4

T1 sequence (P50406 whole entry): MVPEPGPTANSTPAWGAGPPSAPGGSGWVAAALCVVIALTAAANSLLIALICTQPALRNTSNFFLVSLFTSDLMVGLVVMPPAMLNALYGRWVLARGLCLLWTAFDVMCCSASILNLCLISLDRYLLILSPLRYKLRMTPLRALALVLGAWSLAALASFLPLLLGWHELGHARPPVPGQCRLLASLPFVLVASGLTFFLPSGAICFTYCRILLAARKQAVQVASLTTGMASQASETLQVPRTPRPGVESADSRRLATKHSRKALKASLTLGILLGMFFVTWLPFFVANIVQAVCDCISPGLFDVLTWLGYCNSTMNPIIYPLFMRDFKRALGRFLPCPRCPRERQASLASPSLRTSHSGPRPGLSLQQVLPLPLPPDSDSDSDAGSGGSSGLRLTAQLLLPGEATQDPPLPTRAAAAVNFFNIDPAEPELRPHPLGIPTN
T2 sequence (P28223 whole entry): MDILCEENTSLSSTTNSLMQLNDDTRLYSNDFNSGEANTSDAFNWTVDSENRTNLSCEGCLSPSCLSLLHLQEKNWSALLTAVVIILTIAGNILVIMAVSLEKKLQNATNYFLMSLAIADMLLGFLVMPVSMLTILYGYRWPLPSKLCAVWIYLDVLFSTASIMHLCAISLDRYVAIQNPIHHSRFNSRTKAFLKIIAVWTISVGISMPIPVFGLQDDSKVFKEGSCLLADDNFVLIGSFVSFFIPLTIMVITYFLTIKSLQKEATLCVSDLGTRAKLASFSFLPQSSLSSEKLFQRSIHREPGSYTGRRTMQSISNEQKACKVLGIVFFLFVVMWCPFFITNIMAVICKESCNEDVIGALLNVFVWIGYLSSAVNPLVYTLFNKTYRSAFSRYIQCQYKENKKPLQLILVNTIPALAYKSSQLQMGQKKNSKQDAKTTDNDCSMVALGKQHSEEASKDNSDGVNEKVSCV

`CNCC1CCOc2cc(S(=O)(=O)c3ccccc3)ccc21` (stereo not drawn) (as salt: HCl): the melting point was in the range of 158.1 to 159.8 °C.

`NCC1CCOc2cc(S(=O)(=O)c3ccccc3)ccc21` (stereo not drawn) [C-(7-Benzenesulfonyl-chroman-4-yl)-methylamine]: the Ki is about 0.724 nM in series [1] and about 20.4 nM in series [2].
